Reference: PubChem BioAssay AID1259407 (Chemical Carcinogenesis Research Information System (CCRIS), 2018)
Activity calls are given as the source filed them. No rule for the calls is given here.

Test system: CCRIS mutagenicity, Ames/micronucleus/aberration tests
Test: CCRIS mutagenicity studies

Measured: mutagenic call

CC(C)(C)c1cc(O)ccc1O
inactive: Test System: AMES SALMONELLA TYPHIMURIUM, Strain/Indicator: TA97, Metabolic Activation: HAMSTER, LIVER, S-9, AROCLOR 1254 (10%), Method: PREINCUBATION inactive; negative | Test System: AMES SALMONELLA TYPHIMURIUM, Strain/Indicator: TA97, Metabolic Activation: HAMSTER, LIVER, S-9, AROCLOR 1254 (30%), Method: PREINCUBATION inactive; negative | Test System: AMES SALMONELLA TYPHIMURIUM, Strain/Indicator: TA97, Metabolic Activation: NONE, Method: PREINCUBATION inactive; negative | Test System: AMES SALMONELLA TYPHIMURIUM, Strain/Indicator: TA97, Metabolic Activation: NONE, Method: STANDARD PLATE inactive; negative | Test System: AMES SALMONELLA TYPHIMURIUM, Strain/Indicator: TA97, Metabolic Activation: RAT, LIVER, S-9, AROCLOR 1254 (10%), Method: PREINCUBATION inactive; negative | Test System: AMES SALMONELLA TYPHIMURIUM, Strain/Indicator: TA97, Metabolic Activation: RAT, LIVER, S-9, AROCLOR 1254 (30%), Method: PREINCUBATION inactive; negative | Test System: AMES SALMONELLA TYPHIMURIUM, Strain/Indicator: TA97, Metabolic Activation: RAT, LIVER, S-9, AROCLOR, Method: STANDARD PLATE inactive; negative | Test System: AMES SALMONELLA TYPHIMURIUM, Strain/Indicator: TA97, Metabolic Activation: RAT, LIVER, S-9, PCB, Method: PREINCUBATION inactive; negative | Test System: AMES SALMONELLA TYPHIMURIUM, Strain/Indicator: TA98, Metabolic Activation: HAMSTER, LIVER, S-9, AROCLOR 1254 (10%), Method: PREINCUBATION inactive; negative | Test System: AMES SALMONELLA TYPHIMURIUM, Strain/Indicator: TA98, Metabolic Activation: HAMSTER, LIVER, S-9, AROCLOR 1254 (30%), Method: PREINCUBATION inactive; negative | Test System: AMES SALMONELLA TYPHIMURIUM, Strain/Indicator: TA98, Metabolic Activation: NONE, Method: PREINCUBATION inactive; negative | Test System: AMES SALMONELLA TYPHIMURIUM, Strain/Indicator: TA98, Metabolic Activation: RAT, LIVER, S-9, AROCLOR 1254 (10%), Method: PREINCUBATION inactive; negative | Test System: AMES SALMONELLA TYPHIMURIUM, Strain/Indicator: TA98, Metabolic Activation: RAT, LIVER, S-9, AROCLOR 1254 (30%), Method: PREINCUBATION inactive; negative | Test System: AMES SALMONELLA TYPHIMURIUM, Strain/Indicator: TA98, Metabolic Activation: RAT, LIVER, S-9, PCB, Method: PREINCUBATION inactive; negative | Test System: AMES SALMONELLA TYPHIMURIUM, Strain/Indicator: TA100, Metabolic Activation: HAMSTER, LIVER, S-9, AROCLOR 1254 (10%), Method: PREINCUBATION inactive; negative | Test System: AMES SALMONELLA TYPHIMURIUM, Strain/Indicator: TA100, Metabolic Activation: HAMSTER, LIVER, S-9, AROCLOR 1254 (30%), Method: PREINCUBATION inactive; negative | Test System: AMES SALMONELLA TYPHIMURIUM, Strain/Indicator: TA100, Metabolic Activation: NONE, Method: PREINCUBATION inactive; negative | Test System: AMES SALMONELLA TYPHIMURIUM, Strain/Indicator: TA100, Metabolic Activation: NONE, Method: STANDARD PLATE inactive; negative | Test System: AMES SALMONELLA TYPHIMURIUM, Strain/Indicator: TA100, Metabolic Activation: RAT, LIVER, S-9, AROCLOR 1254 (10%), Method: PREINCUBATION inactive; negative | Test System: AMES SALMONELLA TYPHIMURIUM, Strain/Indicator: TA100, Metabolic Activation: RAT, LIVER, S-9, AROCLOR 1254 (30%), Method: PREINCUBATION inactive; negative | Test System: AMES SALMONELLA TYPHIMURIUM, Strain/Indicator: TA100, Metabolic Activation: RAT, LIVER, S-9, AROCLOR, Method: STANDARD PLATE inactive; negative | Test System: AMES SALMONELLA TYPHIMURIUM, Strain/Indicator: TA100, Metabolic Activation: RAT, LIVER, S-9, PCB, Method: PREINCUBATION inactive; negative | Test System: AMES SALMONELLA TYPHIMURIUM, Strain/Indicator: TA102, Metabolic Activation: HAMSTER, LIVER, S-9, AROCLOR 1254 (10%), Method: PREINCUBATION inactive; negative | Test System: AMES SALMONELLA TYPHIMURIUM, Strain/Indicator: TA102, Metabolic Activation: HAMSTER, LIVER, S-9, AROCLOR 1254 (30%), Method: PREINCUBATION inactive; negative | Test System: AMES SALMONELLA TYPHIMURIUM, Strain/Indicator: TA102, Metabolic Activation: NONE, Method: PREINCUBATION inactive; negative | Test System: AMES SALMONELLA TYPHIMURIUM, Strain/Indicator: TA102, Metabolic Activation: NONE, Method: STANDARD PLATE inactive; negative | Test System: AMES SALMONELLA TYPHIMURIUM, Strain/Indicator: TA102, Metabolic Activation: RAT, LIVER, S-9, AROCLOR 1254 (10%), Method: PREINCUBATION inactive; negative | Test System: AMES SALMONELLA TYPHIMURIUM, Strain/Indicator: TA102, Metabolic Activation: RAT, LIVER, S-9, AROCLOR 1254 (30%), Method: PREINCUBATION inactive; negative | Test System: AMES SALMONELLA TYPHIMURIUM, Strain/Indicator: TA102, Metabolic Activation: RAT, LIVER, S-9, AROCLOR, Method: STANDARD PLATE inactive; negative | Test System: AMES SALMONELLA TYPHIMURIUM, Strain/Indicator: TA102, Metabolic Activation: RAT, LIVER, S-9, PCB, Method: PREINCUBATION inactive; negative | Test System: AMES SALMONELLA TYPHIMURIUM, Strain/Indicator: TA104, Metabolic Activation: NONE, Method: PREINCUBATION inactive; negative | Test System: AMES SALMONELLA TYPHIMURIUM, Strain/Indicator: TA104, Metabolic Activation: NONE, Method: STANDARD PLATE inactive; negative | Test System: AMES SALMONELLA TYPHIMURIUM, Strain/Indicator: TA104, Metabolic Activation: RAT, LIVER, S-9, AROCLOR, Method: PREINCUBATION inactive; negative | Test System: AMES SALMONELLA TYPHIMURIUM, Strain/Indicator: TA104, Metabolic Activation: RAT, LIVER, S-9, AROCLOR, Method: STANDARD PLATE inactive; negative

OC[C@H]1O[C@@H](Oc2ccc(O)cc2)[C@H](O)[C@@H](O)[C@@H]1O
inactive: Test System: Chinese hamster lung cells, Strain/Indicator: CHL (HPRT)/6-Thioguanine, Metabolic Activation: None, Method: Standard Plate inactive; negative
